We go through 12 compounds from PubChem BioAssay (NCI).

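Step 1: Grow cells in 96-well plates. Step 2: Expose to compound for 48 hours at 5 concentrations. Step 3: Interpolate endpoints linearly; if unreached, use highest concentration. GI50 = concentration required for 50% inhibition of growth. TGI is the concentration that stops growth completely.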

Some test systems named below: BT-549 breast; HCT-15 colon; M14 melanoma; MDA-N; SK-MEL-5 melanoma; SNB-19 CNS; UACC-62 melanoma; DMS 114 small cell lung; DMS 273 small cell lung; HOP-18 NSCLC; M19-MEL melanoma; SNB-78 CNS; DLD-1 colon; XF 498 CNS.
Holding throughout (assay): growth of human tumour cells (NCI), 48 h

Turning to `C=C(C(=O)OCC)C(=O)OCC`, the TGI in the assay on BT-549 breast, in the assay on HCT-15 colon, in the assay with M14 melanoma, in the assay on MDA-N, in the assay with SK-MEL-5 melanoma and in the assay with SNB-19 CNS was over 100 µM each time. This compound also displayed a TGI with UACC-62 melanoma of over 100 µM.
For the compound `Nc1ccc(N=Nc2c(S(=O)(=O)O)cc3ccccc3c2S(=O)(=O)O)cc1`, the TGI in the assay with BT-549 breast, in the assay on HCT-15 colon, with M14 melanoma, with MDA-N, with SK-MEL-5 melanoma and in the assay with SNB-19 CNS was over 100 µM each time. The TGI with UACC-62 melanoma is over 100 µM.
For `O=c1oc2cc(O)ccc2c(O)c1C(c1ccccc1)c1c(O)c2ccc(O)cc2oc1=O`, the TGI in the assay on BT-549 breast, in the assay on HCT-15 colon, in the assay with M14 melanoma, in the assay on MDA-N, in the assay on SK-MEL-5 melanoma and with UACC-62 melanoma was over 100 µM in each case.
For the compound `O=C1CC2(CCC(O)(c3ccc4ccccc4c3)C(C(=O)c3ccc4ccccc4c3)C2)C(=O)c2ccccc2N1` (stereo unspecified), the TGI with BT-549 breast, with M14 melanoma, in the assay on SK-MEL-5 melanoma, with SNB-19 CNS and in the assay with UACC-62 melanoma was over 100 µM each time.
As to `O=C1CCC(c2ccccc2)=NN1c1nsc2ccccc12`, the TGI in the assay on DMS 114 small cell lung, with DMS 273 small cell lung, with HCT-15 colon, with HOP-18 NSCLC, with M14 melanoma and in the assay on M19-MEL melanoma was over 100 µM throughout. Further, the TGI in the assay on SK-MEL-5 melanoma, in the assay with SNB-19 CNS, in the assay on SNB-78 CNS and with UACC-62 melanoma was over 100 µM throughout.
Take `O=C(O)C(Cl)(Cl)Cl`: the TGI with DLD-1 colon, in the assay with DMS 114 small cell lung, in the assay with DMS 273 small cell lung, in the assay with HCT-15 colon, with HOP-18 NSCLC and in the assay on M14 melanoma was over 100 µM each time. In addition, the TGI in the assay on M19-MEL melanoma, in the assay on SK-MEL-5 melanoma, in the assay with SNB-19 CNS, with SNB-78 CNS and in the assay with XF 498 CNS was over 100 µM in each case.
For `CCCCCCCCCCCCCCCCNc1cccc2ccccc12`, the TGI in the assay on DLD-1 colon, in the assay with DMS 114 small cell lung, in the assay on DMS 273 small cell lung, with HCT-15 colon, in the assay on M14 melanoma and with M19-MEL melanoma was over 100 µM in each case. The TGI in the assay on SNB-19 CNS, in the assay on SNB-78 CNS and with UACC-62 melanoma was over 100 µM each time.
`C[n+]1c(/C=C/c2c(O)ccc3ccccc23)ccc2ccccc21`: the GI50 in the assay on HCT-15 colon was 5.84 µM; with M14 melanoma it was 5.8 µM; in the assay on SK-MEL-5 melanoma it was 4.82 µM; with SNB-19 CNS it was 6.56 µM; in the assay on UACC-62 melanoma it was 5.77 µM. The TGI in the assay with HCT-15 colon is 13.1 µM; with M14 melanoma it was 12.8 µM; in the assay on SK-MEL-5 melanoma, 10.7 µM; with SNB-19 CNS, 14.8 µM; in the assay with UACC-62 melanoma, 12.2 µM.
With `COc1cc2c(cc1OC)C(C(c1ccccc1)c1ccccc1)N(C)CC2` (stereo unspecified), the TGI in the assay with DLD-1 colon, in the assay with DMS 114 small cell lung, with DMS 273 small cell lung, in the assay with HCT-15 colon, in the assay on HOP-18 NSCLC and in the assay on M19-MEL melanoma was over 100 µM each time. Moreover, the TGI in the assay on SK-MEL-5 melanoma is 47.6 µM; in the assay on SNB-19 CNS, over 100 µM; in the assay on SNB-78 CNS it was over 100 µM; in the assay on UACC-62 melanoma it was over 100 µM; in the assay with XF 498 CNS, 97.8 µM.
As to `C[N+](C)([O-])CCOc1cc2c(c3ccccc13)-c1ccccc1C2=O`, the TGI in the assay on DLD-1 colon was over 100 µM; in the assay on DMS 114 small cell lung, 24.7 µM; with DMS 273 small cell lung it was 43.9 µM; in the assay on HCT-15 colon, over 100 µM; in the assay on HOP-18 NSCLC, over 100 µM; in the assay on M19-MEL melanoma, 36.2 µM. Also, the TGI in the assay on SK-MEL-5 melanoma is 28.7 µM; in the assay on SNB-19 CNS, over 55.1 µM; in the assay with SNB-78 CNS it was over 91.1 µM; with UACC-62 melanoma, 30.2 µM; in the assay on XF 498 CNS, 37.9 µM.
Regarding `COc1cnc2c(c1)C(=O)c1c-2n(CCCN2CCOCC2)c(=O)c2cc(Cl)ccc12`, the GI50 is 0.323 µM in the assay with M14 melanoma, 0.31 µM in the assay with SNB-19 CNS and 0.187 µM with UACC-62 melanoma. Moreover, the TGI in the assay with M14 melanoma, in the assay on SNB-19 CNS and in the assay on UACC-62 melanoma was over 100 µM throughout.
As to `NC(=O)c1c(NC(=O)c2ccccc2)sc2c1CCC(=O)C2`, the GI50 with HCT-15 colon was 0.375 µM; in the assay with SK-MEL-5 melanoma it was 1.64 µM; in the assay on SNB-19 CNS, 3.29 µM; in the assay with UACC-62 melanoma, 0.723 µM. Further, the TGI was 1.93 µM in the assay on HCT-15 colon, 3.04 µM with SK-MEL-5 melanoma, over 100 µM in the assay with SNB-19 CNS and 2.51 µM with UACC-62 melanoma.
